Results taken from patent US8334258B2, “Method for induction and enhancement of apoptosis in tumor cells” (Georg-August-Universität Göttingen Stiftung Öffentlichen …, priority 2006, dated 2012).
Square brackets hold non-standard residues; d marks the D form. pGlu = O=C1CC[C@@H](C(=O)O)N1

Key:
[1] = tested on: MCF-7 breast cancer cell line; assay: Apoptosis assay, flow cytometric analysis of DNA degradation (propidium iodide); format: cell-based, human; conditions: MCF-7, FIG. 1 (B)
cancer cells = conditions: Gründker et al. 2004; cited from earlier work

Q: Which results are given for “[D-Lys^6]GnRH-II ([pGlu]HWSH[dK]WYPG-NH2; SMILES NCCCC[C@@H](NC(=O)[C@H](Cc1c[nH]cn1)NC(=O)[C@H](CO)NC(=O)[C@H](Cc1c[nH]c2ccccc12)NC(=O)[C@H](Cc1c[nH]cn1)NC(=O)[C@@H]1CCC(=O)N1)C(=O)N[C@@H](Cc1c[nH]c2ccccc12)C(=O)N[C@@H](Cc1ccc(O)cc1)C(=O)N1CCC[C@H]1C(=O)NCC(N)=O) [GnRH-II agonist]”?
A: induction of apoptotic cell death by GnRH-II agonist [1]: did not induce apoptotic cell death; antiproliferative effects after GnRH-I receptor knock-out (cancer cells): still existing
